Reference: paper PMC11882969 (Nature Communications, 2025)
Several values for one entry are separate records, joined by “and”; a condition that tells them apart may be missing. Equal entries are not always repeated.

Tests used:
Format in all cases: cell-based
[1] = molecular target: hCB1 (Homo sapiens, UniProt P21554); experiment: Tango β-arrestin-2 recruitment, HTLA cells, CB1R; parameters: expressed in transfected cells; host or cells: HTLA cells (gift of R. Axel), transient transfection
[2] = molecular target: T1, hCB2 (Homo sapiens, UniProt P34972); experiment: TRUPATH BRET2 GoA dissociation, HEK293T; parameters: expressed in transfected cells; host or cells: HEK293T cells (ATCC: CRL-3216), transient co-transfection; settings: for functional response, concentration-response point (FigS7e, normalized): Log[drug], replicate columns
T1 sequence (P34972 whole entry): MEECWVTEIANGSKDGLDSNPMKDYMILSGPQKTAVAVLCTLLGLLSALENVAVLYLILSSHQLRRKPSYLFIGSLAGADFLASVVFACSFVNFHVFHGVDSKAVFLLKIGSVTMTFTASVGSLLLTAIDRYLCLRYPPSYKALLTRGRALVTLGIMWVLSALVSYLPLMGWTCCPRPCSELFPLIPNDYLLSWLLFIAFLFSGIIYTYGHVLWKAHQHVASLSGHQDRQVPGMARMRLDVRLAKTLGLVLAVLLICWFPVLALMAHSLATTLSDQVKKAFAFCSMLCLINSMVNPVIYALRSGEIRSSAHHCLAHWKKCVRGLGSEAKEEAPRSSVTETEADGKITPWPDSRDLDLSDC

[3] = molecular target: T1, hCB2; experiment: Tango β-arrestin-2 recruitment, HTLA cells, CB2R; parameters: expressed in transfected cells; host or cells: HEK293 cells stably expressing human CB2R (Laboratory of Ken Mackie); settings: hCB2
Description: The Tango β-arrestin-2 recruitment assays were performed as described[83]. In brief, HTLA cells (a gift from the laboratory of R. Axel) were transiently transfected with human CB1R or CB2R Tango DNA construct overnight in DMEM supplemented with 10 % FBS, 100 µg ml−1 streptomycin and 100 U ml−1 penicillin. The transfected cells were then plated into poly-L-lysine-coated 384-well white clear-bottom cell culture plates in DMEM containing 1% dialysed FBS at a density of 10,000–15,000 cells per well. After incubation for 6 h, the plates were added with drug solutions prepared in DMEM containing 1% dialysed FBS for overnight incubation. On the day of assay, medium and drug solutions were removed and 20 µl per well of BrightGlo reagent (Promega) was added. The plates were further incubated for 20 min at room temperature and counted using the Wallac TriLux Microbeta counter (PerkinElmer). The results were analysed using GraphPad Prism 9. Each experiment was performed in triplicate and functional IC50 values were determined from the mean of three independent experiments.

Sequence of hCB1 (P21554 whole entry): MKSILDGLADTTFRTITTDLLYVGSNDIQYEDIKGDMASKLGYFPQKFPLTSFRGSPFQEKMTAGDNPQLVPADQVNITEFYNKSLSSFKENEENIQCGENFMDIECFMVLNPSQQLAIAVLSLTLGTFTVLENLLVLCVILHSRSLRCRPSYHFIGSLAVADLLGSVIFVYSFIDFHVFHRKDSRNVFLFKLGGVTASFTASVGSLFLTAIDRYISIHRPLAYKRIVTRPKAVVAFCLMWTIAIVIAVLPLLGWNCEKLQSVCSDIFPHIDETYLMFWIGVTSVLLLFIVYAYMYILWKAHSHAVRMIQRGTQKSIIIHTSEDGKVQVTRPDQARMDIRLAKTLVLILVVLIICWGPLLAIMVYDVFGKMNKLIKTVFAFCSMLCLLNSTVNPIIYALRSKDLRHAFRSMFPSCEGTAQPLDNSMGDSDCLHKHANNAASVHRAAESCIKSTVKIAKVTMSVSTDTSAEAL

For `COC(=O)[C@@H]1[C@@H]2CCC[C@@H]2CN1C(=O)c1cc(C)n(-c2cccc(C(F)(F)F)c2)n1` [‘6439], the “response, replicate values of concentration-response curve (FigS7f)” value (“response, replicate values” below) ([1]; Log[drug], M = -4.52) was -10.8475 and 13.7559 and -1.3408 and 30.128 and 34.5335 and 23.984 and 49.6721 and 28.9692 and 37.5272, the “response, replicate values” value ([1]; Log[drug], M = -5) was 12.97 and -6.259 and -29.1004 and -18.7713 and 7.052 and 41.6727 and 31.5861 and -0.2412 and 17.8549 and 115.231 and 93.3593 and 69.1731 and the “response, replicate values” value ([1]; Log[drug], M = -5.52) was -14.7516 and -1.011 and 3.958 and 21.4628 and 26.9697 and -2.702 and -24.3795 and -8.092 and 23.1695 and 55.5034 and 99.9754 and 83.8088. For the same compound, the “response at Log[drug], M -5.52 (FigS4e)” value ([1]; Log[drug], M = -5.52, individual replicates) was 41.0598 and 42.1112 and 37.5809 and 36.0059 and 27.2068 and 23.0093 and 28.7041 and 23.0465 and 29.4359 and 31.2692 and 37.5598 and 31.3786, the “response, replicate values” value ([1]; Log[drug], M = -6) was -7.78 and 1.232 and -8.579 and 16.9776 and 8.83 and 54.3719 and -17.0743 and 6.68 and 7.903 and 46.3174 and 81.0931 and 82.3871 and the “response at Log[drug], M -6 (FigS4e)” value ([1]; Log[drug], M = -6, individual replicates) was 26.6779 and 28.882 and 31.009 and 30.2093 and 13.1731 and 19.3667 and 17.0092 and 18.0259 and 28.822 and 23.6752 and 23.7677 and 25.0376. For the same compound, the “response, replicate values” value ([1]; Log[drug], M = -6.52) was 6.949 and 23.0344 and 26.685 and -30.9662 and -12.5345 and 9.44 and -7.445 and 20.4415 and 28.8782 and 41.1229 and 58.9482 and 96.877, the “response at Log[drug], M -6.52 (FigS4e)” value ([1]; Log[drug], M = -6.52, individual replicates) was 20.6989 and 18.775 and 18.227 and 14.6552 and 8.92 and 7.4713 and 4.648 and 5.829 and 9.707 and 10.7245 (2×) and 6.125 and the “response, replicate values” value ([1]; Log[drug], M = -7) was 31.5144 and 45.4069 and -35.2101 and -37.1897 and 1.93 and 0.2842 and 7.478 and -20.5097 and -17.3775 and 49.0331 and 80.6374 and 65.8924. For the same compound, the “response at Log[drug], M -7 (FigS4e)” value ([1]; Log[drug], M = -7, individual replicates) was 6.9232 and 8.043 and 10.8845 and 9.988 and 0.5556 and -1.865 and 0.4774 and 0.6189 and 2.467 and 3.148 and 2.635 and 4.207, the “response, replicate values” value ([1]; Log[drug], M = -7.52) was -4.763 and -11.0123 and 28.1301 and -8.049 and -20.0319 and -11.1013 and -22.9649 and -19.4286 and 2.9819 and 44.3307 and 18.8869 and 45.9893 and the “response at Log[drug], M -7.52 (FigS4e)” value ([1]; Log[drug], M = -7.52, individual replicates) was 6.822 and 6.684 and 9.44 and 7.52 and -3.124 and -0.9675 and -2.021 and -2.681 and -0.3421 and -0.05622 and 2.349 and 1.533. For the same compound, the “response at Log[drug], M -8 (FigS4e)” value ([1]; Log[drug], M = -8, individual replicates) was 5.884 and 9.216 and 9.707 and 9.61 and -1.035 and -0.111 and -1.31 and -2.509 and 0.4231 and 1.197 and 7.663 and 1.289, the “response at Log[drug], M -8.52 (FigS4e)” value ([1]; Log[drug], M = -8.52, individual replicates) was 12.6416 and 8.6666 and 7.701 and 11.5559 and 0.09453 and -1.259 and 2.111 and -1.3123 and 0.08722 and 0.8217 and 1.887 and 4.054 and the “response at Log[drug], M -9 (FigS4e)” value ([1]; Log[drug], M = -9, individual replicates) was 6.15 and 10.745 and 10.5633 and 11.2546 and -2.544 and -0.8488 and 0.7085 and -0.4422 and 2.383 and 3.898 and 2.695 and 3.787. The “response, replicate values” value ([1]; Log[drug], M = -9.52) was -11.8869 and 10.4349 and -26.9456 and -12.2027 and 18.9813 and -12.6008 and 11.5803, the “response at Log[drug], M -9.52 (FigS4e)” value ([1]; Log[drug], M = -9.52, individual replicates) was 7.12 and 7.04 and 8.157 and 9.473 and -0.8081 and -1.207 and -0.4666 and -1.821 and 4.375 and 2.502 and 0.01377 and 0.5555 and the “response, replicate values” value ([1]; Log[drug], M = -10) was 17.8121 and -5.27 and 8.977 and 22.6969 and 39.8414 and 41.3409 and 56.1992 and 5.841 and 17.8346 and -4.352 and 10.4482 and -28.6471. For the same compound, the “response at Log[drug], M -10 (FigS4e)” value ([1]; Log[drug], M = -10, individual replicates) was 8.321 and 7.43 and 8.2855 and 10.5544 and 1.814 and -2.821 and -0.4869 and -0.1291 and 2.41 and 4.577 and 0.8034 and 1.18, the “response at Log[drug], M -10.52 (FigS4e)” value ([1]; Log[drug], M = -10.52, individual replicates) was 8.25 and 8.706 and 9.026 and 10.1955 and -1.024 and 0.4442 and -0.6414 and 0.7573 and 1.648 and 0.8217 and 2.116 and 5.22 and the “response at Log[drug], M -11 (FigS4e)” value ([1]; Log[drug], M = -11, individual replicates) was 3.256 and 4.195 and 6.189 and 8.184 and 0.0864 and 0.615 and -0.08844 and -0.05998 and 3.273 and 3.861 and 4.338 and 1.74. For the same compound, the “response at Log[drug], M -11.52 (FigS4e)” value ([1]; Log[drug], M = -11.52, individual replicates) was 5.192 and 4.514 and 4.754 and 3.593 and 1.237 and 0.5215 and -0.05998 and -1.081 and -0.5647 and 0.7391 and 0.6014 and 3.236, the “response at Log[drug], M -12 (FigS4e)” value ([1]; Log[drug], M = -12, individual replicates) was 0.3534 and 0.1806 and 0.07866 and -0.6126 and -2.04 and 1.058 and -0.6333 and 1.615 and -1.51 and 0.6106 and 0.6473 and 0.2525 and the EC50 ([1]; hCB1, read-out: Tango ß-arrestin recruitment EC50) was greater than 10000 nM. The EC50 [2] was 97.1 nM, the “BRET2 + GoA Emax” value ([2]; % of CP-55,940) was 81% [34 – 128] and the “functional response, concentration-response point (FigS7e, normalized)” value (“functional response … (FigS7e, normalized)” below) ([2]; M = -5) was 12.9272 and 15.9912 and 13.3933 and 14.1917 and 9.02 and 8.9115 and 9.964 and 9.677 and 16.1327 and 18.1614 and 17.7797 and 17.4918. For the same compound, the “functional response … (FigS7e, normalized)” value ([2]; M = -5.52) was 13.7946 and 14.1528 and 14.7009 and 15.5942 and 7.819 and 9.861 and 11.3112 and 10.248 and 13.5348 (2×) and 16.0255 and 15.2556, the “functional response … (FigS7e, normalized)” value ([2]; M = -6) was 13.5098 and 11.3391 and 11.5247 and 10.1826 and 7.139 and 7.697 and 10.1371 and 9.4066 and 13.2838 and 11.7338 and 12.1556 and 10.2207 and the “functional response … (FigS7e, normalized)” value ([2]; M = -6.52) was 8.245 and 8.18 and 7.1316 and 8.582 and 5.652 and 4.45 and 4.542 and 4.824 and 8.731 and 6.786 and 7 and 7.151. The “functional response … (FigS7e, normalized)” value ([2]; M = -7) was 3.477 and 2.251 and 1.336 and 1.824 and 2.04 and 2.129 and 1.242 and 0.8388 and 2.913 and 2.96 and 2.756 and 1.624, the “functional response … (FigS7e, normalized)” value ([2]; M = -7.52) was 0.5378 and 0.2401 and 2.191 and 0.8701 and 1.326 and 0.4303 and 0.552 and 0.1165 and 1.032 and 0.8075 and 1.393 and 1.507 and the “functional response … (FigS7e, normalized)” value ([2]; M = -8) was 0.2919 and 0.01139 and 0.3868 and 0.4645 and -0.1973 and 0.3762 and 0.9064 and 1.539 and 0.3891 and 0.4427 and 0.6703 and 0.6301. For the same compound, the “functional response … (FigS7e, normalized)” value ([2]; M = -8.52) was -0.3369 and -0.3039 and -0.3274 and -0.06361 and -0.07458 and 0.1558 and -0.006646 and 0.09378 and 0.05117 and 0.1425 and 0.3472 and 0.4422, the “functional response … (FigS7e, normalized)” value ([2]; M = -12) was 0.6997 and -0.1013 and -0.3699 and -0.2285 and the “Tango ß-arrestin recruitment Emax” value [3] was 14% [13 – 15]. For the same compound, the “Tango ß-arrestin recruitment pEC50” value [3] was 6.5 [6.4 – 6.6] and the EC50 ([3]; read-out: Tango ß-arrestin recruitment EC50) was 338 nM.
